# Reference: patent publication US20040102454A1, “Phenylahistin and the phenylahistin analogs, a new class of anti-tumor compounds” (priority 1998, published 2004)
# How the values were obtained:
# Experiment in all cases: HCC panel assay, sulforhodamine B
# Type in all cases: cell-based
# HT-29 = settings: HT-29, Colon, (−)-PLH content 24.1%
# Procedure: (§1) The antitumor activity of PLH was evaluated by the Human Cancer Cell Line Panel (HCC panel) assay, see Yamori T., Jap. J Cancer Chemother., (1997), 24, 129-35. This HCC panel consists of 38 tumor cell lines including 7 lung cancer, 6 stomach, 6 colon, 5 ovary, 6 central nerve system, 5 breast, 2 kidney and 1 melanoma cell lines. Each tumor cell was seeded in 96-well tissue culture plates and incubated overnight. Various concentrations (5 doses; final 10^−4, 10^−5, 10^−6, 10^−7 and 10^−8 M) of PLH were added, and the cells were incubated for 48 hours. […] All mice were obtained from Japan SLC (Shizuoka, Japan), P388 leukemia cells were obtained from Dainippon Pharmaceuticals Inc. (Osaka, Japan), Lewis Lung Carcinoma from Riken Cell Bank (Tsukuba, Japan), and Colon 26 cells from the National Cancer Center, Japan (Tokyo, Japan).
# OVCAR-3 = test system: OVCAR-3
# Procedure: as §1
# ACHN = settings: Renal, (−)-PLH content 24.1%
# Procedure: as §1
# NCI-H522 = settings: NCI-H522, Lung, (−)-PLH content 24.1%
# Procedure: as §1
# NCI-H226 = settings: NCI-H226, Lung, (−)-PLH content 24.1%
# Procedure: as §1
# SF-268 = settings: SF-268, CNS, (−)-PLH content 24.1%
# Procedure: as §1
# MKN28 = settings: MKN28, Stomach, (−)-PLH content 24.1%
# Procedure: as §1
# MKN45 = settings: MKN45, Stomach, (−)-PLH content 24.1%
# Procedure: as §1
# MCF-7 = settings: MCF-7, Breast, (−)-PLH content 24.1%
# Procedure: as §1
# OVCAR-8 = settings: OVCAR-8, Ovary, (−)-PLH content 24.1%
# Procedure: as §1
# HCT-116 = settings: HCT-116, Colon, (−)-PLH content 24.1%
# Procedure: as §1
# MKN74 = settings: MKN74, Stomach, (−)-PLH content 24.1%
# Procedure: as §1
# A549 = settings: A549, Lung, (−)-PLH content 24.1%
# Procedure: as §1
# BSY-1 = settings: BSY-1, Breast, (−)-PLH content 24.1%
# Procedure: as §1
# MKN1 = settings: MKN1, Stomach, (−)-PLH content 24.1%
# Procedure: as §1
# SNB-75 = settings: SNB-75, CNS, (−)-PLH content 24.1%
# Procedure: as §1
# HCC2998 = settings: HCC2998, Colon, (−)-PLH content 24.1%
# Procedure: as §1
# HCT-15 = settings: HCT-15, Colon, (−)-PLH content 24.1%
# Procedure: as §1
# NCI-H460 = settings: NCI-H460, Lung, (−)-PLH content 24.1%
# Procedure: as §1
# HBC-5 = settings: HBC-5, Breast, (−)-PLH content 24.1%
# Procedure: as §1
# RXF-6311 = settings: RXF-6311, Renal, (−)-PLH content 24.1%
# Procedure: as §1
# [1] = Homo sapiens, read-out: GL50 (the source's name)
# [2] = Homo sapiens, read-out: LC50 (the source's name)
smiles,measurement,setting,value
"C=CC(C)(C)c1[nH]cnc1/C=C1\NC(=O)[C@H](Cc2ccccc2)NC1=O (racemic) [PLH, phenylahistin]",TGI,HT-29,>100 µM
same,IC50,HT-29; [1],0.4 µM
same,CC50,HT-29; [2],> 100 µM
same,CC50,"OVCAR-3; Homo sapiens, OVCAR-3, read-out: LC50",> 100 µM
same,IC50,"OVCAR-3; Homo sapiens, OVCAR-3, Ovary, (−)-PLH content 24.1%, read-out: GL50 (the source's name)",3 µM
same,TGI,"OVCAR-3; OVCAR-3, Ovary, (−)-PLH content 24.1%",>100 µM
same,IC50,ACHN; [1],28 µM
same,CC50,ACHN; [2],> 100 µM
same,TGI,ACHN,>100 µM
same,IC50,NCI-H522; [1],0.25 µM
same,CC50,NCI-H522; [2],> 100 µM
same,TGI,NCI-H522,0.81 µM
same,IC50,NCI-H226; [1],0.41 µM
same,CC50,NCI-H226; [2],> 100 µM
same,TGI,NCI-H226,31 µM
same,IC50,SF-268; [1],0.41 µM
same,CC50,SF-268; [2],> 100 µM
same,TGI,SF-268,>100 µM
same,IC50,"MKN28; Homo sapiens, MKN-28, read-out: GL50 (the source's name)",0.42 µM
same,CC50,"MKN28; Homo sapiens, MKN-28, read-out: LC50 (the source's name)",> 100 µM
same,TGI,MKN28,>100 µM
same,IC50,"MKN45; Homo sapiens, MKN-45, read-out: GL50 (the source's name)",1.5 µM
same,CC50,"MKN45; Homo sapiens, MKN-45, read-out: LC50 (the source's name)",> 100 µM
same,TGI,MKN45,>100 µM
same,IC50,"MCF-7; Homo sapiens, MCF7, read-out: GL50 (the source's name)",0.47 µM
same,CC50,"MCF-7; Homo sapiens, MCF7, read-out: LC50 (the source's name)",> 100 µM
same,TGI,MCF-7,>100 µM
same,IC50,OVCAR-8; [1],0.52 µM
same,CC50,OVCAR-8; [2],> 100 µM
same,TGI,OVCAR-8,56 µM
same,TGI,HCT-116,>100 µM
same,IC50,HCT-116; [1],0.48 µM
same,CC50,HCT-116; [2],> 100 µM
same,IC50,"MKN74; Homo sapiens, MKN-74, read-out: GL50 (the source's name)",0.48 µM
same,CC50,"MKN74; Homo sapiens, MKN-74, read-out: LC50 (the source's name)",> 100 µM
same,TGI,MKN74,>100 µM
same,TGI,A549,>100 µM
same,IC50,A549; [1],0.97 µM
same,CC50,A549; [2],> 100 µM
same,TGI,BSY-1,0.67 µM
same,IC50,BSY-1; [1],0.23 µM
same,CC50,BSY-1; [2],> 100 µM
same,IC50,"MKN1; Homo sapiens, MKN-1, read-out: GL50 (the source's name)",0.4 µM
same,CC50,"MKN1; Homo sapiens, MKN-1, read-out: LC50 (the source's name)",> 100 µM
same,TGI,MKN1,21 µM
same,IC50,SNB-75; [1],0.37 µM
same,CC50,SNB-75; [2],> 100 µM
same,TGI,SNB-75,>100 µM
same,TGI,HCC2998,5.3 µM
same,IC50,"HCC2998; Homo sapiens, HCC 2998, read-out: GL50 (the source's name)",1.1 µM
same,CC50,"HCC2998; Homo sapiens, HCC 2998, read-out: LC50 (the source's name)",> 100 µM
same,TGI,HCT-15,>100 µM
same,IC50,HCT-15; [1],0.49 µM
same,CC50,HCT-15; [2],> 100 µM
same,IC50,NCI-H460; [1],0.41 µM
same,CC50,NCI-H460; [2],> 100 µM
same,TGI,NCI-H460,>100 µM
same,TGI,HBC-5,>100 µM
same,IC50,"HBC-5; Homo sapiens, HBC5, read-out: GL50 (the source's name)",0.6 µM
same,CC50,"HBC-5; Homo sapiens, HBC5, read-out: LC50 (the source's name)",> 100 µM
same,IC50,RXF-6311; [1],1.9 µM
same,CC50,RXF-6311; [2],> 100 µM
same,TGI,RXF-6311,>100 µM
